According to ChEMBL document CHEMBL3132820, “Dinaphthonaphthyridines a class of novel molecules with potent antioxidant and anticancer activity” (Medchemcomm, 2013):
Values after ≈ are worked out from the molar mass of the structure shown.

Assays:
[1] = Antioxidant activity assessed as hydroxyl radical scavenging activity after 15 mins by spectrophotometry; format: functional
[2] = tested on: Radical scavenging activity; assay: Antioxidant activity assessed as DPPH radical scavenging activity; format: functional
[3] = tested on: HeLa; assay: Cytotoxicity against human HeLa cells after 48 hrs by MTT assay; format: functional, cell-based
[4] = Antioxidant activity assessed as superoxide anion radical scavenging activity after 90 seconds by formazan method; format: functional
[5] = tested on: AGS; assay: Cytotoxicity against human AGS cells after 48 hrs by MTT assay; format: functional, cell-based
[6] = Antioxidant activity assessed as ABTS radical scavenging activity after 30 mins by spectrophotometry; format: functional
[7] = tested on: HCT-116; assay: Cytotoxicity against human HCT116 cells after 48 hrs by MTT assay; format: functional, cell-based; conditions: HCT-116, 48 h

Cc1cc(Nc2cccc3ccccc23)c2ccc3ccccc3c2n1
IC50 [1]: 62.3 µg/mL (≈ 186 µM) | IC50 [2]: 18.2 µg/mL (≈ 54.4 µM) | IC50 [3]: 3.45 µM | IC50 [4]: 186.2 µg/mL (≈ 557 µM) | IC50 [5]: 4.01 µM | IC50 [6]: 115.2 µg/mL (≈ 344 µM) | IC50 [7]: 5.61 µM

Cc1nc2c3ccccc3ccc2c2nc3c(ccc4ccccc43)c(-c3nccnc3N)c12
IC50 [1]: 47.8 µg/mL (≈ 109 µM) | IC50 [2]: 12 µg/mL (≈ 27.4 µM) | IC50 [3]: 1.21 µM | IC50 [4]: 133.9 µg/mL (≈ 306 µM) | IC50 [5]: 2.26 µM | IC50 [6]: 81.7 µg/mL (≈ 187 µM) | IC50 [7]: 3.56 µM

COc1ccc(-c2c3ccc4ccccc4c3nc3c2c(C)nc2c4ccccc4ccc32)cc1
IC50 [1]: 82.3 µg/mL (≈ 183 µM) | IC50 [2]: 27.5 µg/mL (≈ 61 µM) | IC50 [3]: 45.9 µM | IC50 [4]: 176.4 µg/mL (≈ 392 µM) | IC50 [5]: 66.4 µM | IC50 [6]: 132.5 µg/mL (≈ 294 µM) | IC50 [7]: > 80 µM

Cc1nc2c3ccccc3ccc2c2nc3c(ccc4ccccc43)c(-c3cccc([N+](=O)[O-])c3)c12
IC50 [1]: 54.2 µg/mL (≈ 116 µM) | IC50 [2]: 33.3 µg/mL (≈ 71.5 µM) | IC50 [3]: 50.7 µM | IC50 [4]: 157.3 µg/mL (≈ 338 µM) | IC50 [5]: 25.5 µM | IC50 [6]: 116.8 µg/mL (≈ 251 µM) | IC50 [7]: 13.2 µM

Cc1ccc(-c2c3ccc4ccccc4c3nc3c2c(C)nc2c4ccccc4ccc32)cc1
IC50 [1]: 68.7 µg/mL (≈ 158 µM) | IC50 [2]: 24.5 µg/mL (≈ 56.4 µM) | IC50 [3]: 72.2 µM | IC50 [4]: 191.5 µg/mL (≈ 441 µM) | IC50 [5]: > 80 µM | IC50 [6]: 123.3 µg/mL (≈ 284 µM) | IC50 [7]: 67 µM

Cc1nc2c3ccccc3ccc2c2nc3c(ccc4ccccc43)c(-c3ccccc3S)c12
IC50 [1]: 49.6 µg/mL (≈ 110 µM) | IC50 [2]: 10.2 µg/mL (≈ 22.5 µM) | IC50 [3]: 3.19 µM | IC50 [4]: 158.3 µg/mL (≈ 350 µM) | IC50 [5]: 4.07 µM | IC50 [6]: 89 µg/mL (≈ 197 µM) | IC50 [7]: 1.42 µM

Cc1nc2c3ccccc3ccc2c2nc3c(ccc4ccccc43)c(-c3ccccc3Cl)c12
IC50 [1]: 74.6 µg/mL (≈ 164 µM) | IC50 [2]: 43 µg/mL (≈ 94.5 µM) | IC50 [3]: > 80 µM | IC50 [4]: 170 µg/mL (≈ 374 µM) | IC50 [5]: 52.5 µM | IC50 [6]: 118.1 µg/mL (≈ 260 µM) | IC50 [7]: 48.2 µM

Cc1nc2c3ccccc3ccc2c2nc3c(ccc4ccccc43)c(-c3cc([N+](=O)[O-])ccc3N)c12
IC50 [1]: 43.3 µg/mL (≈ 90.1 µM) | IC50 [2]: 11.3 µg/mL (≈ 23.5 µM) | IC50 [3]: 5.77 µM | IC50 [4]: 110.1 µg/mL (≈ 229 µM) | IC50 [5]: 17.8 µM | IC50 [6]: 93.1 µg/mL (≈ 194 µM) | IC50 [7]: 6.01 µM

Cc1nc2c3ccccc3ccc2c2nc3c(ccc4ccccc43)c(-c3ccc(O)cc3)c12
IC50 [1]: 44.1 µg/mL (≈ 101 µM) | IC50 [2]: 10.4 µg/mL (≈ 23.8 µM) | IC50 [3]: 4.63 µM | IC50 [4]: 99 µg/mL (≈ 227 µM) | IC50 [5]: 14.2 µM | IC50 [6]: 86.4 µg/mL (≈ 198 µM) | IC50 [7]: 3.19 µM

Cc1nc2c3ccccc3ccc2c2nc3c(ccc4ccccc43)c(-c3cccc4ccccc34)c12
IC50 [1]: 64.3 µg/mL (≈ 137 µM) | IC50 [2]: 26.1 µg/mL (≈ 55.5 µM) | IC50 [3]: 14.9 µM | IC50 [4]: 179.3 µg/mL (≈ 381 µM) | IC50 [5]: 12.1 µM | IC50 [6]: 110.5 µg/mL (≈ 235 µM) | IC50 [7]: 20.8 µM

Cc1nc2c3ccccc3ccc2c2nc3c(ccc4ccccc43)c(-c3cc(O)nc4ccccc34)c12
IC50 [1]: 44.8 µg/mL (≈ 91.9 µM) | IC50 [2]: 14.1 µg/mL (≈ 28.9 µM) | IC50 [3]: 4.88 µM | IC50 [4]: 147.7 µg/mL (≈ 303 µM) | IC50 [5]: 15.8 µM | IC50 [6]: 92.1 µg/mL (≈ 189 µM) | IC50 [7]: 4.63 µM

Cc1nc2c3ccccc3ccc2c2nc3c(ccc4ccccc43)c(-c3ccccc3N)c12
IC50 [1]: 45.6 µg/mL (≈ 105 µM) | IC50 [2]: 17.5 µg/mL (≈ 40.2 µM) | IC50 [3]: 16.2 µM | IC50 [4]: 124.6 µg/mL (≈ 286 µM) | IC50 [5]: 12.1 µM | IC50 [6]: 95.4 µg/mL (≈ 219 µM) | IC50 [7]: 4.76 µM

Cc1nc2c3ccccc3ccc2c2nc3c(ccc4ccccc43)c(-c3cccnc3)c12
IC50 [1]: 63.6 µg/mL (≈ 151 µM) | IC50 [2]: 16.9 µg/mL (≈ 40.1 µM) | IC50 [3]: 3.86 µM | IC50 [4]: 156.1 µg/mL (≈ 370 µM) | IC50 [5]: 3.96 µM | IC50 [6]: 98.2 µg/mL (≈ 233 µM) | IC50 [7]: 34.2 µM

COc1ccc(O)c(C(C)(C)C)c1.COc1ccc(O)cc1C(C)(C)C [BUTYLATED HYDROXYANISOLE]
IC50 [1]: 75.7 µg/mL | IC50 [2]: 9.7 µg/mL | IC50 [4]: 79.6 µg/mL | IC50 [6]: 96.8 µg/mL

Cc1nc2c3ccccc3ccc2c2nc3c(ccc4ccccc43)c(-c3ccccc3)c12
IC50 [1]: 84.6 µg/mL (≈ 201 µM) | IC50 [2]: 31.3 µg/mL (≈ 74.4 µM) | IC50 [3]: > 80 µM | IC50 [4]: 188.1 µg/mL (≈ 447 µM) | IC50 [5]: > 80 µM | IC50 [6]: 164.3 µg/mL (≈ 391 µM) | IC50 [7]: > 80 µM

Cc1nc2c3ccccc3ccc2c2nc3c(ccc4ccccc43)c(C)c12
IC50 [1]: 89.6 µg/mL (≈ 250 µM) | IC50 [2]: 46.6 µg/mL (≈ 130 µM) | IC50 [3]: > 80 µM | IC50 [4]: 194.5 µg/mL (≈ 543 µM) | IC50 [5]: > 80 µM | IC50 [6]: 128.5 µg/mL (≈ 358 µM) | IC50 [7]: > 80 µM

COc1cccc2c1C(=O)c1c(O)c3c(c(O)c1C2=O)C[C@@](O)(C(=O)CO)C[C@@H]3O[C@H]1C[C@H](N)[C@H](O)[C@H](C)O1 [DOXORUBICIN]
IC50 [3]: 6.3 µM | IC50 [5]: 10.9 µM | IC50 [7]: 8.7 µM
